Source: US20100222289A1, “METHODS FOR DIAGNOSIS AND TREATMENT OF CHRONIC FATIGUE SYNDROME” (CFS Research LLC, priority 2007, published 2010)

Key:
HCMV [1] = details: cited from earlier work
[2] = set-up: species or system human; details: in vivo
Protocol: Toxicity of Antiviral Nucleosides Patients were seen every 4 to 6 weeks, EIPS was recorded and complete blood count, aminotransferases, creatinine and urinalyses were done. Also recorded were abnormalities in white blood cells and platelet counts, aminotransferases, weight gain or loss, whether famciclovir was substituted for valacyclovir, dosage change for valganciclovir, valacyclovir, or famciclovir, and whether any of the following occurred: participation in blinded-placebo-controlled study, hospitalization, surgery, recovery, a cessation of medicines by patient choice, cessation of medicines by physician choice, relapse with worsening EIPS and returned for care.

HCMV [3] = details: cited from earlier work; remark: listed apart in the source
[4] = cited from earlier work
[5] = tested on: human bone marrow progenitor cells and lymphocyte blastogenesis; details: at this dosage; cited from earlier work
HHV6 [6] = details: cited from earlier work
EBV [7] = assay: simultaneous tests, activity versus EBV compared to HCMV; format: cell-based, Epstein-Barr virus
Source text: Therefore, valganciclovir was employed in CFS associated with HCMV or HHV6. Valganciclovir is efficiently absorbed as ganciclovir. It […] to human bone marrow progenitor cells and lymphocyte blastogenesis at this dosage. […] Food increases the bioavailability of both valacyclovir and valganciclovir.

HHV6 [8] = details: cited from earlier work; remark: listed apart in the source
HCMV-EBV subset CFS = assay: Example 1: subset directed antiviral therapy of HCMV-EBV CFS patients; format: in vivo, human; details: for clinical outcome: 10 CFS patients, treated according to subset for mean 2.6±0.4 years; for side effects: mean 2.6±0.4 years treatment
Protocol: Ten patients with chronic fatigue syndrome (CFS) of 1.3-2.6 years duration had elevated serum antibody titers to cytomegalovirus (HCMV), and 9 of these patients also had elevated serum antibody titers to Epstein-Barr virus (EBV). They were classified: HCMV-EBV subset (nine patients) and HCMV subset (one patient) CFS. We determined whether subset classification is required for successful antiviral therapy of CFS.
CFS patients with elevated serum antibody titers to HCMV and EBV were treated with valganciclovir (HCMV) and valacyclovir (EBV) according to subset classification for a mean of 2.6±0.4 years. […] Five patients continue no antiviral drug, and five patients require continuing antiviral suppressive therapy. […] Subset directed antiviral therapy leads to sustained recovery in CFS patients.

[9] = tested on: Group A herpesvirus CFS (EBV, HCMV, HHV6); assay: Example 4: Energy Index Point Score (EIPS) in Group A herpesvirus CFS patients on antiviral nucleosides; format: in vivo, human
Source text: Background and Patient Population The international criteria for diagnosis of CFS was used. With strict confidentiality clinical files of CFS patients were identified by number only. A blinded code was maintained. Data were entered to the Axel computer system and analyzed anonymously. Patients with active EBV infection were identified by the presence of elevated serum ELISA antibodies to Epstein-Barr virus (EBV) IgM viral capsid antigen p18 peptide (Diasorin Inc., Stillwater, Minn.) and/or EBV, Early antigen (diffuse) 47 KD recombinant peptide (Diasorin, Stillwater, Minn.). Patients with active HCMV infection were identified by the presence of HCMV strain AD69 human fibroblast lysate, IgM and IgG ELISA and Copalis light-scatter, HCMV IgM p52 recombinant protein, UL44 and HCMV CM2, UL44 and part UL57 recombinant protein. Elevated IgM and IgG Human Herpesvirus 6 serum antibody titers ≧160 (LabCorp, Dublin, Ohio) were recorded. CFS patients had 24-Hr ECG Holter monitor recordings. When abnormal resting standard ECG and abnormal recurrent oscillating T-waves (flat, inverted) were present at baseline, radionuclide ventriculography by bicycle protocol stress studies were performed. The CFS patients reported here are termed Group A. They had negative IgM, IgG serum antibody titers to Borrelia burgdorferi, Western blot and ELISA; anti-streptolysin 0 titers <200 units; and negative serum IgM and IgG antibody titers to both Ehrlichia chaffeensis and Babesia microti (LabCorp).
Measurement of Degree of Fatigue (Physical Capacity) The Energy Index Point Score (EIPS) is a reliable validated metric assessing the degree of illness of CFS patients. With an EIPS scoring scale for reference on the wall in each examining room, the EIPS was determined by consensus of physician and patient. An EIPS of “0” is a bedridden patient. Patients were seen every 4-6 weeks and EIPS recorded. If an intercurrent illness was present EIPS determinations were delayed for 2 weeks. An EIPS of between 0 and 5 is associated with the presence of CFS. At an EIPS of between 6 and 10, the patient no longer meets criteria for diagnosis of CFS. A change in EIPS of 0.25 is small, a 0.5 change in EIPS is a medium change, and an EIPS change of ≧0.8 is a large effect size (p<0.05).
Valacyclovir and Famciclovir Administration to CFS patients with EBV infection Valacyclovir and famciclovir are pro-drugs well absorbed orally and, after reaching the circulation as acyclovir or penciclovir, respectively, inhibit EBV thymidine kinase efficiently. […]. Here, valacyclovir was the agent of first choice, but when diarrheas to valacyclovir developed, famciclovir was substituted. […]. If the patient weighed over 79.5 Kg, 1500 mg valacyclovir was given at each dose. Valacyclovir is excreted by the kidney by both glomerular filtration and tubular secretion. Valacyclovir renal calculi may result, and patients were advised to drink at least 1500 ml water daily. […]. Valacyclovir, once absorbed orally, is acyclovir in serum.
CFS patients were given valganciclovir. Cautiously beginning, 450 mg daily was administered every morning after a meal for three days, and then increasing dosage to two doses of 450 mg, every morning for three days. They were then given two doses of 450 mg valganciclovir every morning followed by one 12 hours later as a continuing dosage. […] If the patient weighed over 90.0 Kg, 900 mg valganciclovir every 12 hours was given. Dosage was evaluated every 2-6 weeks for ongoing tolerance with normal values of hemograms, platelets and amino transferases and creatinines.

HCMV [10] = details: versus HCMV; read-out: 50% inhibitory concentration; cited from earlier work
[11] = high dose repetitive human studies; cited from earlier work
EBV CFS subset = assay: Example 3: valacyclovir in EBV subset CFS, placebo-controlled trial and 36 month follow-up; format: in vivo, human
Protocol: We used subset classification of Epstein-Barr virus (EBV) in chronic fatigue (CFS). We (1) performed (Group 1) a blinded-random placebo-controlled trial of valacyclovir in EBV CFS subset, and (2) followed (Group 2) this EBV subset for thirty-six months. Patients were given valacyclovir 14.3 mg per kg every 6 hours. The validated Energy Index point score (EI) assessing physical functional capacity, Holter monitor, multigated (radionuclide) MUGA rest/stress ventriculographic examination, EBV serum IgM viral capsid antibodies (VCA), and EBV Early Antigen diffuse, (EA) were evaluated.

EBV [12] = details: cited from earlier work
[13] = 1 gm doses every 6 hours, 70 kg patients
[14] = EBV single-virus subset (31 pts)
[15] = Group 2, thirty-six month follow-up

CC(C)[C@H](N)C(=O)OCC(CO)OCn1cnc2c(=O)nc(N)[nH]c21 (some centres unmarked) [valganciclovir]
effective therapeutic agent for HCMV (HCMV [1]): not effective therapeutic agents
aminotransferases [2]: increases in aminotransferases were observed
changes in hemoglobin or platelet levels [2]: no changes
MIC (HCMV [3]): 0.15 to 0.3 µg/mL
average peak concentrations (Cmax) ([4]; after 0.5-1.0 gm doses): 6100 ng/mL
effect on human bone marrow progenitor cells and lymphocyte blastogenesis [5]: inhibitory
effective therapeutic agent for HHV6 (HHV6 [6]): not effective therapeutic agents
activity versus EBV as compared to HCMV (EBV [7]): one-tenth as active
MIC (HHV6 [8]): 0.15 to 0.3 µg/mL
clinical outcome (HCMV-EBV subset CFS): returned to health and remain well
side effects (HCMV-EBV subset CFS): No significant side effects
EIPS Change ([9]; EBV/HCMV subset (38 pts)): +1.8
EIPS Change ([9]; EBV/HHV6 subset (14 pts)): +2.0
EIPS Change ([9]; HCMV single-virus subset (15 pts)): +1.5
EIPS Change ([9]; HCMV/HHV6 subset (7 pts)): +1.7
EIPS Change ([9]; HHV6 single-virus subset (2 pts)): +2.7

CC(C)Nc1nc2cc(Cl)c(Cl)cc2n1[C@H]1O[C@@H](CO)[C@H](O)[C@@H]1O [maribavir, 1H-β-L-ribofuranoside-2-isopropylamino-5,6-dichlorobenzimidazole]
IC50 (HCMV [10]): 120 ± 10 nM
side effects [11]: changes in taste and headache

CC(C)[C@H](N)C(=O)OCCOCn1cnc2c(=O)[nH]c(N)nc21 [valacyclovir]
effective therapeutic agent for HCMV (HCMV [1]): not an effective therapeutic antiviral agent
toxicity [2]: no toxicity
peak acyclovir levels [4, 13]: 7.9 to 21 µg/mL
time of peak acyclovir levels [4, 13]: 90 to 120 min
effective therapeutic agent for HHV6 (HHV6 [6]): not an effective therapeutic antiviral agent
clinical outcome (HCMV-EBV subset CFS): returned to health and remain well
side effects (HCMV-EBV subset CFS): No significant side effects
EIPS Change [9, 14]: +2
increase in energy expenditure corresponding to EI change (EBV CFS subset; Group 1, after six months): 122 kcal/day
increase in mean least square EI Point Score (EBV CFS subset; Group 1, after six months, 14.3 mg per kg every 6 hours): +1.12 units
EI Point Scores (EBV CFS subset; [15]): increased progressively
abnormal cardiac wall motion (EBV CFS subset; [15]): improved
serum antibody titers to EBV VCA IgM (EBV CFS subset; [15]): decreased
sinus tachycardias (EBV CFS subset; [15]): decreased
minimum inhibitor concentration (MIC) (EBV [12]): 1.5 to 3.0 µg/mL

CC(=O)OCC(CCn1cnc2cnc(N)nc21)COC(C)=O [famciclovir]
effective therapeutic agent for HCMV (HCMV [1]): not effective therapeutic agents
toxicity [2]: no toxicity
effective therapeutic agent for HHV6 (HHV6 [6]): not effective therapeutic agents
EIPS Change [9, 14]: +2

Nc1nc(O)c2ncn(COC(CO)CO)c2n1 [ganciclovir]
IC50 (HCMV [10]): 530 ± 40 nM
